Source: patent US20220387403A1, “COMPOUNDS, COMPOSITIONS AND METHODS FOR TREATING NASH, NAFLD, AND OBESITY” (CVI Pharmaceuticals Limited, priority 2019, published 2022)
Like-named read-outs stand apart in the source and are kept apart here.

Experiments:
[1] = test system: hyperlipidemic rabbits; conditions: rabbit, in vivo
[2] = test system: hyperlipidemic rabbits; experiment: Lipid lowering effects and blood chemistry in hyperlipidemic rabbits; conditions: for serum total cholesterol level: in mM
[3] = test system: HepG2 cells; experiment: DiI-LDL uptake (LDLR ligand uptake activity) in HepG2 cells; type: cell-based, human; conditions: for Activity on DiI-LDL uptake: A, compound dose ≤ 10 μM, 20 hours
Protocol: HepG2 cells (2×10^5 cells/well) in 24-well culture plates were treated with various compounds at indicated concentrations for 20 hours. The fluorescent 1.1′-dioctadecyl-3,3,3′,3′-tetramethylindocarbocyanin perchlorate (DiI-LDL) (Biomedical Technologies, Stoughton, Mass.) at a concentration of 2 μg/mL was added to cells at the end of treatment. After 4 hours, the medium was removed, cells were washed with cold PBS, and were examined immediately under a fluorescent microscope (Nikon) at 200× amplification. The fluorescent intensity in compound-treated cells was compared to that in untreated control cells. […] In these experiments berberine chloride was used for comparison.
The combined beneficial effects of these novel compounds on elevation of LDLR mRNA levels likely through the mechanism of mRNA stabilization and their inhibitory activity towards PCSK9, the secreted protease that degrades LDLR protein, result in strong increases in LDL ligand uptake activity through increased receptor surface abundance. […] Briefly, HepG2 cells (2×10^5 cells/well) in 24-well culture plates were treated with various compounds at 10 and 40 uM concentrations for 20 hours. The fluorescent 1. 1′-dioctadecyl-3,3,3′, 3′-tetramethylindocarbocyanin perchlorate (DiI-LDL) (Biomedical Technologies, Stoughton, Mass.) at a concentration of 2 μg/ml was added to cells at the end of treatment. After 4 hours, the medium was removed; cells were washed with cold PBS, and were examined immediately under a fluorescent microscope (Nikon) at 200× amplification. The fluorescent intensity in compound-treated cells was compared to that in untreated control cells. […]

[4] = test system: LDLR mRNA; experiment: LDLR mRNA expression in HepG2 cells, quantitative real-time RT-PCR; type: cell-based, human; conditions: 24 hours; for Activity on LDLR mRNA expression (Fold of control): dose less than or equal to 10 μM; for Activity on LDLR mRNA at 40 uM (fold of control) / Activity on LDLR mRNA at 10 uM (fold of control): mean ± s.d.
Protocol: Activities of some compounds of Formulas I, II, III, and IV on LDLR mRNA expression were determined. HepG2 cells were treated with new compounds individually at a dose less than or equal to 10 μM for 24 hours. Total RNA was harvested for quantitative real-time RT-PCR analysis using the method described in Example 16B. […] In these experiments, berberine chloride was included for comparison. […]
Total RNA was harvested for quantitative real-time RT-PCR analysis using method described in Examples 16B.
The effects of 23 compounds on the mRNA expressions of LDLR and PCSK9 were examined using quantitative real-time RT-PCR assays. HepG2 cells were treated with various compounds at 10 and 40 uM concentrations for 24 hours. Total RNA was isolated and 2 μg was used to generate cDNA in a reaction containing random primers and M-MLV at 37° C. for 1 h in a volume of 25 μl. Real-time PCR was performed on the cDNA using MCEP REALPLEX 2 SYSTEM (Eppendorf) and Universal MasterMix (Applied Biosystems). Human LDLR, PCSK9, and GAPDH Pre-Developed TaqMan Assay Reagents (Applied Biosystems) were used to assess the levels of mRNA expressions in HepG2. The levels of LDLR and PCSK9 mRNA were normalized to that of GAPDH. Each RNA samples was assayed in duplicate. The fold activity was calculated by dividing mRNA abundance in compound treated cells with that of control.

[5] = after 14 days of drug treatment, mean, n = 6
[6] = treatment day 0 (before the drug treatment), mean ± SD, n = 6
[7] = treatment day 4, 128(+)/128(−) 30 mg/kg, SMV/ATV 3 mg/kg once a day oral gavage
[8] = treatment day 7, 128(+)/128(−) 30 mg/kg, SMV/ATV 3 mg/kg once a day oral gavage
[9] = treatment day 10, from day 7 128(+)/128(−) 60 mg/kg, SMV/ATV 10 mg/kg
[10] = treatment day 14, from day 7 128(+)/128(−) 60 mg/kg, SMV/ATV 10 mg/kg
[11] = 40 uM, 20 hours (second symbol of the cell)
[12] = 10 uM, 20 hours (first symbol of the cell)

## CC(C)c1c(C(=O)Nc2ccccc2)c(-c2ccccc2)c(-c2ccc(F)cc2)n1CC[C@@H](O)C[C@@H](O)CC(=O)O [ATV, atorvastatin, reference compound]
[1]
  ALP: 333.5 IU/L
  ALT: 795.6 IU/L
  AST: 767.0 IU/L
  CK: 7270.0 U/L
  CREA: 238.2 µmol/L
  GLU: 6.7 mmol/L
  LDH: 675.0 IU/L
[2]; [5]
  HDL-C: 3.6 mmol/L
  LDL-C: 29.6 mmol/L
  TC: 33.9 mmol/L
  TG: 1.7 mmol/L
[2]; [6]
  serum total cholesterol level: 28.9 ± 6.0
[2]; [7]
  serum total cholesterol level: 26.5 ± 5.2
[2]; [8]
  serum total cholesterol level: 31.5 ± 4.9
[2]; [9]
  serum total cholesterol level: 32.5 ± 4.5
[2]; [10]
  serum total cholesterol level: 33.9 ± 6.5

## COc1ccc2c(c1O)CN1CCc3cc4c(cc3C1C2)OCO4 (centres unmarked) [Compound 34, 10-methoxy-5,6,7,8,13,13a-hexahydro-2H-1,3-dioxolano[4,5-g]isoquinolino[3,2-a]isoqunolin-9-ol]
[3]
  Activity on DiI-LDL uptake: ++
[4]
  Activity on LDLR mRNA expression (Fold of control): 1.76 ± 0.17 Fold of control

## COc1ccc2c(c1OC(=O)NC(C)C)CN1CCc3cc4c(cc3C1C2)OCO4 (centres unmarked) [Compound 41, (10-methoxy(5,6,7,8,13,13a-hexahydro-2H-1,3-dioxolano[4,5-g]isoquinolino[3,2-a]isoquinolin-9-yloxy))-N-(methylethyl)carboxamide]
[3]
  Activity on DiI-LDL uptake: ++
[4]
  Activity on LDLR mRNA expression (Fold of control): 1.60 ± 0.03 Fold of control

## COc1ccc2c(c1OC(=O)N(C)C)CN1CCc3cc4c(cc3C1C2)OCO4 (centres unmarked) [Compound 43, (10-methoxy(5,6,7,8,13,13a-hexahydro-2H-1,3-dioxolano[4,5-g]isoquinolino[3,2-a]isoquinolin-9-yloxy))-N,N-dimethylcarboxamide]
[3]
  Activity on DiI-LDL uptake: ++
[4]
  Activity on LDLR mRNA expression (Fold of control): 1.95 ± 0.18 Fold of control

## COc1ccc2c(c1OC(=O)Nc1ccc(OC(F)(F)F)cc1)CN1CCc3cc4c(cc3C1C2)OCO4 (centres unmarked) [Compound 44, (10-methoxy(5,6,7,8,13,13a-hexahydro-2H-1,3-dioxolano[4,5-g]isoquinolino[3,2-a]isoquinolin-9-yloxy))-N-[4-(trifluoromethoxy)phenyl]carbox-amide]
[3]
  Activity on DiI-LDL uptake: ++
[4]
  Activity on LDLR mRNA expression (Fold of control): 2.20 ± 0.06 Fold of control

## COc1cc(NC(=O)Oc2c(OC)ccc3c2CN2CCc4cc5c(cc4C2C3)OCO5)cc(OC)c1 (centres unmarked) [Compound 45]
[3]
  Activity on DiI-LDL uptake: ++
[4]
  Activity on LDLR mRNA expression (Fold of control): 2.09 ± 0.11 Fold of control

## COc1ccc2c(c1OC(=O)Nc1cccc(C)c1)CN1CCc3cc4c(cc3C1C2)OCO4 (centres unmarked) [Compound 46, (10-methoxy(5,6,7,8,13,13a-hexahydro-2H-1,3-dioxolano[4,5-g]isoquinolino[3,2-a]isoquinolin-9-yloxy))-N-(3-methylphenyl)carboxamide]
[3]
  Activity on DiI-LDL uptake: ++
[4]
  Activity on LDLR mRNA expression (Fold of control): 1.80 ± 0.16 Fold of control

## CCOC(=O)Oc1c(OC)ccc2c1CN1CCc3cc4c(cc3C1C2)OCO4 (centres unmarked) [Compound 48, 10-methoxy-5,6,7,8,13,13a-hexahydro-2H-1,3-dioxolano[4,5-g]isoquinolino[3,2-a]isoquinolin-9-yl ethoxyformate]
[4]
  Activity on LDLR mRNA expression (Fold of control): 1.45 ± 0.15 Fold of control

## COc1ccc2c(c1OC(=O)Nc1ccccc1)CN1CCc3cc4c(cc3C1C2)OCO4 (centres unmarked) [Compound 61, (10-methoxy(5,6,7,8,13,13a-hexahydro-2H-1,3-dioxolano[4,5-g]isoquinolino[3,2-a]isoquinolin-9-yloxy))-N-benzamide]
[4]
  Activity on LDLR mRNA expression (Fold of control): 1.33 ± 0.53 Fold of control

## COc1ccc2c(c1)CCN1Cc3c(ccc(OC)c3OS(=O)(=O)c3ccccc3)CC21 (centres unmarked) [Compound 115, 3,10-Dimethoxy-5,6,7,8,13,13a-hexahydroisoquinolino[2,1-b]isoquinolin-9-yl benzenesulfonate]
[3]; [11]
  Activity in LDL uptake (relative to control): +++
[4]
  Activity on LDLR mRNA at 40 uM (fold of control): 2.65 ± 0.06 fold of control

## COc1ccc2c(c1OS(=O)(=O)c1ccccc1)CN1CCc3cc4c(cc3C1C2)OCCO4 (centres unmarked) [Compound 116, 11-Methoxy-6,7,8,9,14,14a-hexahydro-2H,3H-1,4-dioxano[5,6-g]isoquinolino[3,2-a]isoquinolin-10-yl benzenesulfonate]
[3]; [12]
  Activity in LDL uptake (relative to control): +++/+++
[3]; [11]
  Activity in LDL uptake (relative to control): +++/+++

## COc1ccc2c(c1OS(=O)(=O)c1ccccc1)CN1CCc3cc(C)ccc3C1C2 (centres unmarked) [Compound 121, 10-Methoxy-3-methyl-5,6,7,8,13,13a-hexahydroisoquinolino[2,1-b]isoquinolin-9-yl benzenesulfonate]
[4]
  Activity on LDLR mRNA at 10 uM (fold of control): 3.56 ± 0.03 fold of control
  Activity on LDLR mRNA at 40 uM (fold of control): 3.43 ± 0.81 fold of control

## COc1cc2c(cc1OC)C1C(C)c3ccc(OC)c(OS(=O)(=O)c4ccccc4)c3CN1CC2 (centres unmarked) [Compound 139, 2,3,10-Trimethoxy-13-methyl-5,6,7,8,13,13a-hexahydro-isoquinolino[2,1-b]isoquinolin-9-yl benzensulfonate]
[4]
  Activity on LDLR mRNA at 10 uM (fold of control): 11.5 ± 1.29 fold of control
  Activity on LDLR mRNA at 40 uM (fold of control): 3.02 ± 0.34 fold of control

## COc1ccc2c(c1)CCN1Cc3c(ccc(OC)c3OS(=O)(=O)c3ccccc3)C(C)C21 (centres unmarked) [Compound 140, 3,10-Dimethoxy-13-methyl-5,6,7,8,13,13a-hexahydro-isoquinolino[2,1-b]isoquinolin-9-yl benzenesulfonate]
[4]
  Activity on LDLR mRNA at 10 uM (fold of control): 6.65 ± 0.68 fold of control

## COc1ccc2c(c1)CCN1Cc3c(cccc3OS(=O)(=O)c3cccc(F)c3)CC21 (centres unmarked) [Compound 150, 3-methoxy-5,6,7,8,13,13a-hexahydroisoquinolino[2,1-b]isoquinolin-9-yl 3-fluorobenzenesulfonate]
[3]; [12]
  Activity in LDL uptake (relative to control): +/+
[3]; [11]
  Activity in LDL uptake (relative to control): +/+

## CCC(C)(C)C(=O)O[C@H]1C[C@@H](C)C=C2C=C[C@H](C)[C@H](CC[C@@H]3C[C@@H](O)CC(=O)O3)[C@H]21 [SMV, simvastatin, reference compound]
[1]
  CK: 6492.8 U/L
  GLU: 7.9 mmol/L
[2]; [5]
  ALP: 288.7 IU/L
  CREA: 242.2 µmol/L
  HDL-C: 2.9 mmol/L
  LDH: 530.3 IU/L
  LDL-C: 23.3 mmol/L
  TC: 26.2 mmol/L
  TG: 1.7 mmol/L
[2]; [6]
  serum total cholesterol level: 28.8 ± 7.4
[2]; [7]
  serum total cholesterol level: 24.8 ± 6.1
[2]; [8]
  serum total cholesterol level: 26.1 ± 4.4
[2]; [9]
  serum total cholesterol level: 25.4 ± 6.1
[2]; [10]
  serum total cholesterol level: 26.2 ± 5.5

## CN1CCc2cc3c(cc2[C@H]1[C@@H]1O[C@H](O)c2c1ccc1c2OCO1)OCO3 [d-(+)-EGN, (+)-egenine]
[3]
  Activity on DiI-LDL uptake: +
